Results published in EPA's ToxValDB 9.5 (doi:10.2903/j.efsa.2010.1705).
≈ marks a conversion by molar mass, not a printed value.

Tests used:
[1] = tested on: Colinus virginianus; details: for LD50: acute, mortality
[2] = tested on: Canidae; details: chronic, Dog Other
[3] = tested on: Rattus norvegicus; details: for LD50: acute, mortality; for NOAEL: chronic
[4] = tested on: Oryctolagus sp.
[5] = tested on: Tagia sp.
[6] = tested on: Daphnia magna; details: chronic/long-term; duration: 21 days; reproduction
[7] = tested on: Anas platyrhynchos; details: for LD50: oral
[8] = tested on: Oncorhynchus mykiss

Row | SMILES | NOEL ([1]; short-term, oral, diet) | NOAEL ([2]; duration: 2 years) | LD50 ([3]; oral) | NOAEL [3] | NOAEL ([3]; oral) | NOAEL ([4]; reproduction developmental, body weight) | NOEC ([5]; chronic/long-term, duration: 56 days) | LD50 ([1]; oral, diet) | LD50 ([1]; oral) | NOEL ([1]; reproduction developmental) | NOAEL ([2]; duration: 52 weeks, oral, hematological) | NOEC [6] | LD50 ([7]; acute, unspecified, clinical signs) | NOEL ([7]; not reported) | LD50 ([7]; short-term, feed, mortality) | NOAEL ([4]; developmental, development) | LC50 ([5]; acute, duration: 14 days, mortality) | LC50 ([8]; acute, duration: 96 hours, mortality) | NOEC ([8]; chronic/long-term, duration: 96 days, growth)
1 | NC(=O)c1c(Cl)cccc1Cl [2,6-Dichlorobenzamide] | 876 mg/kg-day | 4.5 mg/kg-day | 500 mg/kg-day | 5.7 mg/kg-day | 13.5 mg/kg-day | 30 mg/kg-day | 250 mg/kg | – | – | – | – | – | – | – | – | – | – | – | –
2 | N#Cc1c(Cl)cccc1Cl [2,6-Dichlorobenzonitrile] | – | – | > 2000 mg/kg-day | – | – | – | – | 598 mg/kg-day | 698 mg/kg-day | 14.1 mg/kg-day | 1 mg/kg-day | 1.2 mg/L | > 50 mg/kg-day | 35.5 mg/kg-day | > 470 mg/kg-day | 45 mg/kg-day | 270 mg/kg | 7.2 µg/mL (≈ 41.9 µM) | 0.66 mg/L
